Laboratory results reported in PubChem BioAssay AID328 (DTP/NCI, 2004).
Where “and” joins values, the source holds several entries; their conditions need not be identical. Identical values can stand only once. Inconclusive results and toxic doses are left out. How the source made its calls: active means survival T/C of 150% or more; inactive means T/C below 125% in these data.

Tested on: BDF1 mice, P388 leukemia ip, median survival T/C
Test: NCI In Vivo Anticancer Drug Screen. Data for tumor model P388 Leukemia (intraperitoneal) in B6D2F1 (BDF1) mice
Details: endpoint: median survival time, higher = longer survival
Summary of the method: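 Steps: implant the tumour, treat one group with compound and another with vehicle, record survival, then divide treated by control.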

[1] = dose: 100.0 mg/kg/injection, schedule: Q04DX003 (ip), vehicle: Klucel (hydroxypropylcellulose) (HPC)
[2] = dose: 200.0 mg/kg/injection, schedule: Q04DX003 (ip), vehicle: Klucel (hydroxypropylcellulose) (HPC)
[3] = dose: 100.0 mg/kg/injection, schedule: Q01DX009 (ip), vehicle: Klucel (hydroxypropylcellulose) (HPC)
[4] = dose: 200.0 mg/kg/injection, schedule: Q01DX009 (ip), vehicle: Klucel (hydroxypropylcellulose) (HPC)
[5] = dose: 100.0 mg/kg/injection, schedule: Q01DX009 (ip), vehicle: saline with Tween-80
[6] = dose: 200.0 mg/kg/injection, schedule: Q01DX009 (ip), vehicle: saline with Tween-80
[7] = dose: 400.0 mg/kg/injection, schedule: Q01DX009 (ip), vehicle: saline with Tween-80
[8] = dose: 25.0 mg/kg/injection, schedule: Q01DX009 (ip), vehicle: saline with Tween-80
[9] = dose: 50.0 mg/kg/injection, schedule: Q01DX009 (ip), vehicle: saline with Tween-80
[10] = dose: 100.0 mg/kg/injection, schedule: Q04DX003 (ip), vehicle: saline with Tween-80
[11] = dose: 200.0 mg/kg/injection, schedule: Q04DX003 (ip), vehicle: saline with Tween-80
[12] = dose: 400.0 mg/kg/injection, schedule: Q04DX003 (ip), vehicle: saline with Tween-80

Measured: T/C

COc1ccc([I+]c2ccccc2)cc1
inactive: dose: 1.56 mg/kg/injection, schedule: Q01DX009 (ip), vehicle: saline 87 % of control | dose: 3.13 mg/kg/injection, schedule: Q01DX009 (ip), vehicle: saline 104 % of control | dose: 6.25 mg/kg/injection, schedule: Q01DX009 (ip), vehicle: saline 112 % of control and 120 % of control | dose: 12.5 mg/kg/injection, schedule: Q04DX003 (ip), vehicle: saline sonified 105 % of control | dose: 25.0 mg/kg/injection, schedule: Q04DX003 (ip), vehicle: saline sonified 110 % of control

CC[C@@H]1CN(C)[C@H]2Cc3c([nH]c4ccccc34)C(=O)C[C@H]1C2C(=O)OC (some centres undefined)
inactive: dose: 100.0 mg/kg/injection, schedule: Q01DX009 (ip), vehicle: saline sonified 90 % of control | dose: 100.0 mg/kg/injection, schedule: Q04DX003 (ip), vehicle: saline sonified 100 % of control | dose: 200.0 mg/kg/injection, schedule: Q01DX009 (ip), vehicle: saline sonified 115 % of control | dose: 200.0 mg/kg/injection, schedule: Q04DX003 (ip), vehicle: saline sonified 100 % of control | dose: 400.0 mg/kg/injection, schedule: Q01DX009 (ip), vehicle: saline sonified 100 % of control | dose: 400.0 mg/kg/injection, schedule: Q04DX003 (ip), vehicle: saline sonified 90 % of control

Cc1ccc(NS(=O)(=O)c2ccc(F)cc2)cc1Cl
inactive: [1] 109 % of control | [2] 100 % of control | dose: 400.0 mg/kg/injection, schedule: Q04DX003 (ip), vehicle: Klucel (hydroxypropylcellulose) (HPC) 104 % of control

OC1(C#CC2(O)CCCCC2)CCCCC1
inactive: dose: 50.0 mg/kg/injection, schedule: Q01DX009 (ip), vehicle: Klucel (hydroxypropylcellulose) (HPC) 96 % of control | dose: 50.0 mg/kg/injection, schedule: Q04DX003 (ip), vehicle: Klucel (hydroxypropylcellulose) (HPC) 109 % of control | [3] 100 % of control | [1] 109 % of control | [4] 96 % of control | [2] 100 % of control

CCCCCCC(O)CCCCCCCCCCC(=O)O (centres undefined)
inactive: [5] 95 % of control | [6] 95 % of control | [7] 100 % of control

Clc1ccc(C[P+](c2ccccc2)(c2ccccc2)c2ccccc2)c(Cl)c1
inactive: dose: 1.4 mg/kg/injection, schedule: Q01DX009 (ip), vehicle: saline 120 % of control | dose: 7.5 mg/kg/injection, schedule: Q01DX009 (ip), vehicle: saline 115 % of control

NC(=O)N/N=C/c1ccccc1N
inactive: [3] 90 % of control | [4] 100 % of control | dose: 400.0 mg/kg/injection, schedule: Q01DX009 (ip), vehicle: Klucel (hydroxypropylcellulose) (HPC) 100 % of control

Cc1ccc(S(=O)(=O)c2ccc([N+](=O)[O-])c3no[n+]([O-])c23)cc1
inactive: [8] 104 % of control | [9] 108 % of control | [5] 116 % of control

O=C(/C=N/O)/C=N/O (tested in a mixture with another compound)
inactive: dose: 6.0 mg/kg/injection, schedule: Q01DX009 (ip), vehicle: saline 108 % of control | dose: 6.0 mg/kg/injection, schedule: Q04DX003 (ip), vehicle: saline 100 % of control | dose: 12.0 mg/kg/injection, schedule: Q01DX009 (ip), vehicle: saline 100 % of control | dose: 12.0 mg/kg/injection, schedule: Q04DX003 (ip), vehicle: saline 113 % of control | dose: 25.0 mg/kg/injection, schedule: Q01DX009 (ip), vehicle: saline 100 % of control | dose: 25.0 mg/kg/injection, schedule: Q04DX003 (ip), vehicle: saline 95 % of control

COc1ccc(N=C/C=C/c2ccccc2)cc1
inactive: [10] 104 % of control | [11] 100 % of control | [12] 109 % of control

CC(=O)Nc1ccc(/C=C/C(=O)c2ccc(Cl)cc2)cc1
inactive: [5] 100 % of control | [10] 104 % of control | [6] 100 % of control | [11] 100 % of control | [7] 100 % of control | [12] 90 % of control

CC(=O)Nc1nc(Cl)c([N+](=O)[O-])c(SCc2ccccc2)n1
inactive: dose: 12.5 mg/kg/injection, schedule: Q01DX009 (ip), vehicle: saline with Tween-80 94 % of control | [8] 98 % of control | dose: 25.0 mg/kg/injection, schedule: Q04DX003 (ip), vehicle: saline with Tween-80 116 % of control | [9] 107 % of control | dose: 50.0 mg/kg/injection, schedule: Q04DX003 (ip), vehicle: saline with Tween-80 114 % of control | [5] 96 % of control | [10] 114 % of control | [11] 96 % of control
